Reference: patent publication US9061984B2 (University of Louisville Research Foundation, Inc., priority 2008, dated 2015)
≈ marks a conversion by molar mass, not a printed value. Read-outs that look alike come from different tables or passages of the source.

Legend:
[1] = Cytotoxicity VERO cell (Table 6); details: African green monkey, VERO cells
[2] = system: axenic amastigotes of L. amazonensis (strain MHOM/BR/76/LTB-012); assay: microbe, parasite or virus in culture; details: Leishmania amazonensis, read-out: L. amazonensis IC50
[3] = Toxicity to peritoneal macrophages (Trypan Blue count); type: cell-based, BALB/C mouse; details: BALB/C, mouse, Cytotoxicity Macrophages IC50
[4] = system: Trypanosoma cruzi (Tulahuen C4); assay: In vitro anti-T. cruzi activity (β-galactosidase CPRG colorimetric assay in VERO monolayer); type: cell-based; details: for IC50: Trypanosoma cruzi, TULAHUEN, Vero
3T3 cells = assay: Cell growth inhibition bioassay (sulforhodamine B); type: cell-based, mouse; details: Mus musculus, NIH3T3; 48 h, SRB; read-out: GI50 in indicated cell line: 3T3
How it was run: (§1)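 Cells were exposed to compound alongside matched solvent controls, then stained with sulforhodamine B. Percent growth inhibition was calculated from dye absorbance against the control.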

L. peruviana LCA08 = assay: Activity against macrophages infected with Leishmania amastigotes; details: Leishmania peruviana, Macrophage, read-out: IC50 L. peruviana LCA08
Method: A cloned line of Leishmania amazonensis(strain MHOM/BR/76/LTB-012) was used in all experiments. Axenically grown amastigote forms of L. amazonensis were maintained by weekly subpassages in MAA/20 medium (Sereno and Lemesre, Antimicrobial Agents and Chemotherapy 41, 972-976 (1997)) at 32±1° C. in 25 cm^2 tissue culture flasks. L. peruviana (strain MHOM/PE/LCA08) and L. braziliensis (strainMHOM/PE/PER006) were maintained in the promastigote stage in a biphasic medium (blood agar with 0.89% NaCl, pH 7.4) at 24° C., with sub-passage every 3 to 4 days. Promastigotes (5×10^6 parasites) were then transferred to 25 cm2 tissue culture flasks containing 5 ml of M199 medium supplemented with 10% foetal bovine serum (FBS), pH 7.4. After 4 days, exponential phase promastigotes were centrifuged for 10 minutes at 1500 g and 4° C. The supernatant was discarded and replaced by fresh M199 medium supplemented with 20% FBS, pH 5.5. Axenic amastigotes transformation was then induced by increasing the temperature to 34° C. and incubating for 96 h (Teixeira et al., Parasitology Research 88, 963-968 (2002)).
Extracted cells were immediately deposited on sterile 4×4 mm cover glasses and placed in each well of a 96-well plate. Plates were incubated for 24 h at 37° C., 5% CO2 to allow cell adhesion (Castillo et al, Journal of Ethnopharmacology 112, 410-414 (2007)). Pre-warmed complete M199 medium was used twice to remove non-adherent cells. A neutral red method (Fautz et al., Mutation Research 253, 173-179 (1991)) was employed to determine cell concentration. Approximately 7×10^4 viable cells were deposited in each well for adhesion.
Infection of macrophages by amastigotes was determined as follows. […] Twelve hours after infection, a solution of the compounds to be tested was added to the cultures at various concentrations and maintained at 37° C. in 5% CO2 for a further forty-eight hours more. The plates were fixed with methanol and stained with 10% Giemsa stain. The percentage of infected macrophages was determined microscopically at 100 times magnification. The number of intracellular amastigotes was determined in 300 cells. Following Delorenzi et al. Antimicrobial Agents and Chemotherapy, 45, 1349-1354 (2001)) the percentage of infection rate (% IR) of each culture was calculated as follows: % IR=100−(infection rate of the treated culture/infection rate of the untreated culture)×100.
All experiments were performed in triplicate. ANOVA was used to test for statistical significance of differences (Epi-Info, Statview student program). The total parasite burden was calculated as a mean number of amastigotes per cells multiplied by the number of infected macrophages.

[5] = Cytotoxicity on VERO cells (MTT), anti-T. cruzi study; details: African green monkey, VERO cells, Cytotoxicity VERO Lab B, Lab B
VERO cells = assay: Cell growth inhibition bioassay (sulforhodamine B); type: cell-based, African Green Monkey; details: Chlorocebus sabaeus, Vero; 48 h, SRB; read-out: GI50 in indicated cell line: VERO
How it was run: as §1

L. braziliensis PER006 = assay: Activity against macrophages infected with Leishmania amastigotes; details: Leishmania braziliensis, Macrophage, read-out: IC50 L. braziliensis PER006
[6] = system: axenic amastigotes of L. amazonensis (strain MHOM/BR/76/LTB-012); details: Table 8b
H460 cells = assay: Cell growth inhibition bioassay (sulforhodamine B); type: cell-based, human; details: Homo sapiens, NCI-H460; 48 h, SRB; read-out: GI50 in indicated cell line: H460
How it was run: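 Growth inhibition was measured colorimetrically with sulforhodamine B staining and expressed as percent inhibition relative to solvent-treated controls. Cell lines were human: MCF-7 breast adenocarcinoma, DU145 and PC3 prostate carcinoma/adenocarcinoma, H460 large cell lung cancer.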

MCF-7 cells = assay: Cell growth inhibition bioassay (sulforhodamine B); type: cell-based, human; details: Homo sapiens, MCF7; 48 h, SRB; read-out: GI50 in indicated cell line: MCF-7
How it was run: as §1

M-14 cells = assay: Cell growth inhibition bioassay (sulforhodamine B); type: cell-based, human; details: Homo sapiens, M14; 48 h, SRB; read-out: GI50 in indicated cell line: M-14
How it was run: as §1

HT-29 cells = assay: Cell growth inhibition bioassay (sulforhodamine B); type: cell-based, human; details: Homo sapiens, HT-29; 48 h, SRB; read-out: GI50 in indicated cell line: HT-29
How it was run: as §1

DU145 cells = assay: Cell growth inhibition bioassay (sulforhodamine B); type: cell-based, human; details: Homo sapiens, DU-145; 48 h, SRB; read-out: GI50 in indicated cell line: DU145
How it was run: as §1

K562 cells = assay: Cell growth inhibition bioassay (sulforhodamine B); type: cell-based, human; details: Homo sapiens, K562; 48 h, SRB; read-out: GI50 in indicated cell line: K562
How it was run: as §1

C(=N/Nc1ncnc2sc3c(c12)CCCC3)/c1ccccn1 [II-21]
IC50 [1]: 10.8 µg/mL (≈ 34.9 µM)
IC50 [2]: 200 nM
IC50 at 48 h [3]: 2000 nM
Selectivity Index Lab B ([4]; IC50, VERO/IC50, T. cruzi, Lab B): 0.1
IC50 ([4]; Lab A, read-out: T. cruzi IC50 Lab A): 0.1 µg/mL (≈ 0.323 µM)
IC50 ([4]; Lab B, read-out: T. cruzi IC50 Lab B): 1.2 µg/mL (≈ 3.88 µM)
GI50 (3T3 cells): 0.013 µg/mL (≈ 0.042 µM)
IC50 (L. peruviana LCA08): 0.2 µg/mL (≈ 0.646 µM)
IC50 [5]: < 0.08 µg/mL
GI50 (VERO cells): 0.156 µg/mL (≈ 0.504 µM)
IC50 (L. braziliensis PER006): 0.19 µg/mL (≈ 0.614 µM)
Selectivity Index [6]: 13.0
GI50 (H460 cells): 0.123 µg/mL (≈ 0.398 µM)
GI50 (MCF-7 cells): 0.026 µg/mL (≈ 0.084 µM)
GI50 (M-14 cells): 0.078 µg/mL (≈ 0.252 µM)
GI50 (HT-29 cells): 0.03 µg/mL (≈ 0.097 µM)
GI50 (DU145 cells): 0.115 µg/mL (≈ 0.372 µM)
GI50 (K562 cells): 0.051 µg/mL (≈ 0.165 µM)
